Laboratory results as given in patent US20040249122A1, “Cationic, amphipathic beta-sheet peptides and uses thereof” (priority 2003, published 2004).
Where a SMILES comes first, the peptide text is derived from it.

What was measured:
[1] = test system: Escherichia coli (ATCC 25922); format: cell-based; conditions: ATCC 25922
[2] = test system: Pseudomonas aeruginosa (ATCC 27853); format: cell-based; conditions: ATCC 27853
[3] = test system: Staphylococcus aureus (ATCC 29213); format: cell-based; conditions: ATCC 29213
[4] = test system: Candida albicans (ATCC 14053); conditions: ATCC 14053
Protocol: (§1) Antimicrobial and Hemolytic Assays. Antimicrobial susceptibility testing against Staphylococcus aureus (ATCC 29213), Escherichia coli (ATCC 25922), and Pseudomonas aeruginosa (ATCC 27853) was performed using a modification of the National Committee for Clinical Laboratory Standards microdilution broth assay (22). Mueller-Hinton broth (BBL) was used for diluting the peptide stock solution and for diluting the bacterial inoculum. The inoculum was prepared from mid-logarithmic phase cultures. Microtiter plate wells received aliquots-of 100 μL each of the inoculum and peptide dilution. The final concentration of peptide solution ranged-from 0.25 to 256 μg/mL in two-fold dilutions. The final concentration of bacteria in the wells was 5×10^5 CFU/mL. Peptides were tested in duplicate. In addition to the test peptide, three standard peptides and a non-treated growth control were included to validate the assay. The microtiter plates were incubated overnight at 37° C. and the absorbance was measured at 600 nm. […] After incubation at 37° C. for 30 min, the suspension was centrifuged at 10,000×g for 10 min and the absorbance at 400 nm was measured. Complete hemolysis was determined by adding 0.2% Triton X-100 in place of the peptide.
Antimicrobial susceptibility testing against Escherichia coli (ATCC 25922), Staphylococcus aureus (ATCC 29213), Pseudomonas aeruginosa (ATCC 27853), and Candida albicans (ATCC 14053) is performed using a modification of the National Committee for Clinical Laboratory Standards microdilution broth assay. Mueller-Hinton broth (BBL) is used for diluting the peptide stock solution and for diluting the bacterial inoculum. The inoculum is prepared from midlogarithmic phase cultures at an approximate concentration of 10^6 CFU/mL. Microtiter plate wells receive aliquots of 0.1 mL each of the inoculum and peptide dilution. The final concentration of the peptide solution ranges from 0.25 to 256 μg/mL in 2-fold dilutions. The microtiter plates are incubated overnight at 37° C.

human erythrocytes = experiment: Hemolysis of human erythrocytes; format: cell-based; conditions: red cells of human, 500
Protocol: as §1, with “Microtiter plate wells received aliquots-of 100 μL each of the inoculum and peptide dilution.” left out, “measured.” for “measured. Complete hemolysis was determined by adding 0.2% Triton X-100 in place of the peptide.”

[5] = Peptide-induced leakage from calcein-loaded LUV
microorganisms = conditions: literature (52, 54); E. coli, S. aureus, P. aeruginosa for FKVKFKVKVK; cited from earlier work

| Compound | Minimum Inhibitory Concentration, E. coli [1] [µg/mL] | Minimum Inhibitory Concentration, P. aeruginosa [2] [µg/mL] | Minimum Inhibitory Concentration, S. aureus [3] [µg/mL] | Minimum Inhibitory Concentration, C. albicans [4] [µg/mL] | % Hemolysis (500 μg/mL) (human erythrocytes) [%] | calcein leakage from LUV (in words) ([5]; 4:1 POPE/POPG LUV) | calcein leakage from LUV (in words) ([5]; POPC (PC) LUV) | calcein leakage from LUV (in words) ([5]; POPC/POPG LUV, all ratios (1:1 to 4:1)) | calcein release from LUV (in words) ([5]; POPG LUV) | antimicrobial or hemolytic activity as reported in the literature (microorganisms) |
| --- | --- | --- | --- | --- | --- | --- | --- | --- | --- | --- |
| CC[C@H](C)[C@H](NC(=O)[C@H](C)NC(=O)CNC(=O)[C@H](C)NC(=O)[C@H](CCCCN)NC(=O)[C@H](CO)NC(=O)[C@H](C)NC(=O)[C@H](CCSC)NC(=O)CN)C(=O)N[C@@H](C)C(=O)NCC(=O)N[C@@H](CCCCN)C(=O)N[C@H](C(=O)N[C@@H](C)C(=O)N[C@@H](CCCCN)C(=O)N[C@H](C(=O)N[C@@H](C)C(=O)N[C@@H](CC(C)C)C(=O)N[C@@H](CCCCN)C(=O)N[C@@H](C)C(=O)N[C@@H](CC(C)C)C(N)=O)C(C)C)[C@@H](C)CC [PGLa, GMASKAGAIAGKIAKVALKAL -NH2, reference compound] (H-GMASKAGAIAGKIAKVALKAL-NH2; N-terminus assumed) | 32 | 128 | 64 | 128 | 1 | quite low | not very effective | most potent | most potent | – |
| FKVKFKVKVK (artificial mutant) | – | – | – | – | – | – | – | – | – | able to inhibit the growth |
